This assay deals with T1, rh integrin α4β7 (Homo sapiens, UniProt P13612+P26010).
T1 construct: purchased R&D Systems 5397-A30
T1 sequence (P13612 34-977 limits assumed): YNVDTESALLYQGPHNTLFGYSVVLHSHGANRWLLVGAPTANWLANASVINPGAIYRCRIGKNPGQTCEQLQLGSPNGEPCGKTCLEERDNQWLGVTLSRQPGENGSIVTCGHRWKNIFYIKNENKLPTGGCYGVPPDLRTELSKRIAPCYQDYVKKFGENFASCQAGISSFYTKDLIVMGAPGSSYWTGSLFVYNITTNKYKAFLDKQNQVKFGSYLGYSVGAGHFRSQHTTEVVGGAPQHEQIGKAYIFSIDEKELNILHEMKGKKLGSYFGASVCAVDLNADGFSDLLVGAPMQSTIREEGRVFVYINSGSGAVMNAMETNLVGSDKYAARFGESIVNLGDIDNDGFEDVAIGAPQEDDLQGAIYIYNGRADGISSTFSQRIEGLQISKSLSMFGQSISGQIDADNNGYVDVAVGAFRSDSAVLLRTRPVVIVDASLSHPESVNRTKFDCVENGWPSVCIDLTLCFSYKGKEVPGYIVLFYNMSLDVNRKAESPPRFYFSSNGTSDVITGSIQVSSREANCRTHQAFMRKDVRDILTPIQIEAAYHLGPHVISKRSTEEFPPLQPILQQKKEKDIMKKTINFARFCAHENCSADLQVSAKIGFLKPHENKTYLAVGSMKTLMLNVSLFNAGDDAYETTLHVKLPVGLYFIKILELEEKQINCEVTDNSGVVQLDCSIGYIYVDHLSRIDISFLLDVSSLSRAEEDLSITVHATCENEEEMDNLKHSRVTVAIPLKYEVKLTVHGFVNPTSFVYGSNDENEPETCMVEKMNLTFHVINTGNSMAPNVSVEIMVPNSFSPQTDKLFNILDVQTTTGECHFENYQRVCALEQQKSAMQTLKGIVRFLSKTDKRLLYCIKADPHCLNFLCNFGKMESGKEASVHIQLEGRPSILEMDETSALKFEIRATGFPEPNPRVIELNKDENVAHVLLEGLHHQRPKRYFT
T1 sequence (P26010 20-723 limits assumed): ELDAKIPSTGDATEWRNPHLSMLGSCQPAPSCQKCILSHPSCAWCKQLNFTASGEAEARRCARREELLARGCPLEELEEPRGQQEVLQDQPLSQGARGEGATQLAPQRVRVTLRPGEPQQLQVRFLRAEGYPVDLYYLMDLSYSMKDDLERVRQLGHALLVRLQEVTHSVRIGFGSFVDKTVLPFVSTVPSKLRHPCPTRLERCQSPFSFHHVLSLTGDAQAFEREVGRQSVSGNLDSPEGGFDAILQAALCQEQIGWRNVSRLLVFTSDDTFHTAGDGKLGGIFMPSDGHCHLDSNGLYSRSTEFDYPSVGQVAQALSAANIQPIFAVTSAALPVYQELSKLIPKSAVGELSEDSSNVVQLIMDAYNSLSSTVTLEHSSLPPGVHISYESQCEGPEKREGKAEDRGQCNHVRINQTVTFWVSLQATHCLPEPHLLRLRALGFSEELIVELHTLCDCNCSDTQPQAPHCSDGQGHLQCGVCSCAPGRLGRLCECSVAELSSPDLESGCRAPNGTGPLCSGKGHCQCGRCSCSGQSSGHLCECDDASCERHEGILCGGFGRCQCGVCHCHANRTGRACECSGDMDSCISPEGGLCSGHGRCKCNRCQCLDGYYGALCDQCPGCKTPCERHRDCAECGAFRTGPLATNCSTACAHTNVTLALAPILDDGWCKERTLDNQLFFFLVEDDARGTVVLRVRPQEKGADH
Kind of assay: α4β7-MAdCAM Competition ELISA. The format is binding. The note with it: read-out: ELISA A4B7. The method in brief:
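Recombinant human α4β7 captured on nickel-coated plates, then incubated 1 h at room temperature with serially diluted peptides (final top 10 μM) and 10 nM final MAdCAM-1 in Tris pH 7.6 buffer with 1 mM MnCl2 or MgCl2. Bound MAdCAM-1 detected with anti-human IgG1-HRP and TMB, absorbance at 450 nm.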
Background: ELISA stands for enzyme-linked immunosorbent assay.

Setting [1] is: thioether monomer peptides, Table 6.

Where two headings read alike, the source gives them in different places. Where a SMILES comes first, the peptide text is derived from it.

Take `CC(C)C[C@@H]1NC(=O)[C@H]([C@@H](C)O)NC(=O)[C@H](CC(=O)O)NC(=O)[C@H](CO)NC(=O)[C@H](CCCNC(=N)N)N(C)C(=O)C(C)SC[C@@H](C(=O)N[C@@H](Cc2c[nH]c3ccccc23)C(=O)N[C@H](CCCCN)C(N)=O)NC1=O` (single isomer, unassigned) [compound 144]: the IC50 (thioether peptide dimers, Table 7) is less than 25 nM.
`CC(C)C[C@@H]1NC(=O)[C@H]([C@@H](C)O)NC(=O)[C@H](CC(=O)O)NC(=O)[C@H](CO)NC(=O)[C@H](CCCNC(=N)N)N(C)C(=O)c2ccccc2CSC[C@@H](C(=O)N[C@@H](Cc2c[nH]c3ccccc23)C(=O)N[C@@H](CCC(=O)O)C(=O)N[C@H](CCCCN)C(N)=O)NC1=O` [compound 55] (HELM PEPTIDE1{[meR].S.D.T.L.C.W.E.[dK].[am]}|CHEM1{[O=C(c1ccccc1C[*:2])[*:1]]}$PEPTIDE1,CHEM1,1:R1-1:R1|PEPTIDE1,CHEM1,6:R3-1:R2$$$V2.0): under setting [1], the IC50 is less than 25 nM.
For the compound `CC(C)C[C@@H]1NC(=O)[C@H]([C@@H](C)O)NC(=O)[C@H](CC(=O)O)NC(=O)[C@H](CO)NC(=O)[C@H](CCCNC(=N)N)N(C)C(=O)c2ccccc2CSC(C)(C)[C@@H](C(=O)N[C@@H](Cc2cccc3ccccc23)C(=O)N[C@H](CCC(=O)O)C(=O)N(C)[C@@H](CCCCN)C(N)=O)NC1=O` [compound 69] (HELM PEPTIDE1{[meR].S.D.T.L.[Pen].[O=C([C@H](Cc1cccc2ccccc12)N[*:1])[*:2]].[dE].[meK].[am]}|CHEM1{[O=C(c1ccccc1C[*:2])[*:1]]}$PEPTIDE1,CHEM1,1:R1-1:R1|PEPTIDE1,CHEM1,6:R3-1:R2$$$V2.0), the IC50 under setting [1] was less than 25 nM.
Same read-out and setting: for `CC(=O)NCCCC[C@@H](NC(=O)[C@H](CCC(=O)O)NC(=O)[C@H](Cc1c[nH]c2ccccc12)NC(=O)[C@H]1NC(=O)[C@H](CC(C)C)NC(=O)[C@H]([C@@H](C)O)NC(=O)[C@H](CC(=O)O)NC(=O)[C@H](CO)NC(=O)[C@H](CCCNC(=N)N)N(C)C(=O)c2ccccc2CSC1(C)C)C(N)=O` [compound 80] (HELM PEPTIDE1{[meR].S.D.T.L.[Pen].W.E.[dK].[am]}|PEPTIDE2{[ac]}|CHEM1{[O=C(c1ccccc1C[*:2])[*:1]]}$PEPTIDE1,PEPTIDE2,9:R3-1:R2|PEPTIDE1,CHEM1,1:R1-1:R1|PEPTIDE1,CHEM1,6:R3-1:R2$$$V2.0) the value was less than 25 nM; for `CC(=O)NCCCC[C@@H](NC(=O)[C@@H](CCC(=O)O)NC(=O)[C@H](Cc1c[nH]c2ccccc12)NC(=O)[C@H]1NC(=O)[C@H](CC(C)C)NC(=O)[C@H]([C@@H](C)O)NC(=O)[C@H](CC(=O)O)NC(=O)[C@H](CO)NC(=O)[C@H](CCCNC(=N)N)N(C)C(=O)c2ccccc2CSC1(C)C)C(N)=O` [compound 81] (HELM PEPTIDE1{[meR].S.D.T.L.[Pen].W.[dE].[dK].[am]}|PEPTIDE2{[ac]}|CHEM1{[O=C(c1ccccc1C[*:2])[*:1]]}$PEPTIDE1,PEPTIDE2,9:R3-1:R2|PEPTIDE1,CHEM1,1:R1-1:R1|PEPTIDE1,CHEM1,6:R3-1:R2$$$V2.0), less than 25 nM.
On the same count and under the same terms, the same measure for `CC(=O)NCCCC[C@@H](NC(=O)[C@H](CCC(=O)O)NC(=O)[C@H](Cc1cccc2ccccc12)NC(=O)[C@H]1NC(=O)[C@H](CC(C)C)NC(=O)[C@H]([C@@H](C)O)NC(=O)[C@H](CC(=O)O)NC(=O)[C@H](CO)NC(=O)[C@H](CCCNC(=N)N)N(C)C(=O)c2ccccc2CSC1(C)C)C(N)=O` [compound 89] (HELM PEPTIDE1{[meR].S.D.T.L.[Pen].[O=C([C@H](Cc1cccc2ccccc12)N[*:1])[*:2]].E.[dK].[am]}|PEPTIDE2{[ac]}|CHEM1{[O=C(c1ccccc1C[*:2])[*:1]]}$PEPTIDE1,PEPTIDE2,9:R3-1:R2|PEPTIDE1,CHEM1,1:R1-1:R1|PEPTIDE1,CHEM1,6:R3-1:R2$$$V2.0): less than 25 nM; for `CC(=O)NCCCC[C@@H](NC(=O)[C@@H](CCC(=O)O)NC(=O)[C@H](Cc1ccc(O)cc1)NC(=O)[C@H]1NC(=O)[C@H](CC(C)C)NC(=O)[C@H]([C@@H](C)O)NC(=O)[C@H](CC(=O)O)NC(=O)[C@H](CO)NC(=O)[C@H](CCCNC(=N)N)N(C)C(=O)c2ccccc2CSC1(C)C)C(N)=O` [compound 91] (HELM PEPTIDE1{[meR].S.D.T.L.[Pen].Y.[dE].[dK].[am]}|PEPTIDE2{[ac]}|CHEM1{[O=C(c1ccccc1C[*:2])[*:1]]}$PEPTIDE1,PEPTIDE2,9:R3-1:R2|PEPTIDE1,CHEM1,1:R1-1:R1|PEPTIDE1,CHEM1,6:R3-1:R2$$$V2.0): less than 25 nM; for `CC(C)C[C@@H]1NC(=O)[C@H]([C@@H](C)O)NC(=O)[C@H](CC(=O)O)NC(=O)[C@H](CO)NC(=O)[C@H](CCCNC(=N)N)N(C)C(=O)c2ccccc2CSC(C)(C)[C@@H](C(=O)N[C@@H](Cc2c[nH]c3ccccc23)C(=O)N[C@@H](CCC(=O)O)C(=O)N[C@@H](CN)C(N)=O)NC1=O` [compound 92] (HELM PEPTIDE1{[meR].S.D.T.L.[Pen].W.E.[NC[C@H](N[*:1])C(=O)[*:2]].[am]}|CHEM1{[O=C(c1ccccc1C[*:2])[*:1]]}$PEPTIDE1,CHEM1,1:R1-1:R1|PEPTIDE1,CHEM1,6:R3-1:R2$$$V2.0): less than 25 nM.
Same read-out and setting: the same measure for `CC(C)C[C@@H]1NC(=O)[C@H]([C@@H](C)O)NC(=O)[C@H](CC(=O)O)NC(=O)[C@H](CO)NC(=O)[C@H](CCCNC(=N)N)N(C)C(=O)c2ccccc2CSC(C)(C)[C@@H](C(=O)N[C@@H](Cc2c[nH]c3ccccc23)C(=O)N[C@@H](CCC(=O)O)C(=O)N[C@@H](CCN)C(N)=O)NC1=O` [compound 93] (HELM PEPTIDE1{[meR].S.D.T.L.[Pen].W.E.[Dab].[am]}|CHEM1{[O=C(c1ccccc1C[*:2])[*:1]]}$PEPTIDE1,CHEM1,1:R1-1:R1|PEPTIDE1,CHEM1,6:R3-1:R2$$$V2.0): less than 25 nM; for `CC(C)C[C@@H]1NC(=O)[C@H]([C@@H](C)O)NC(=O)[C@H](CC(=O)O)NC(=O)[C@H](CO)NC(=O)[C@H](CCCNC(=N)N)N(C)C(=O)c2ccccc2CSC(C)(C)[C@@H](C(=O)N[C@@H](Cc2c[nH]c3ccccc23)C(=O)N[C@H](CCC(=O)O)C(=O)N[C@@H](CN)C(N)=O)NC1=O` [compound 94] (HELM PEPTIDE1{[meR].S.D.T.L.[Pen].W.[dE].[NC[C@H](N[*:1])C(=O)[*:2]].[am]}|CHEM1{[O=C(c1ccccc1C[*:2])[*:1]]}$PEPTIDE1,CHEM1,1:R1-1:R1|PEPTIDE1,CHEM1,6:R3-1:R2$$$V2.0): less than 25 nM; for `CC(C)C[C@@H]1NC(=O)[C@H]([C@@H](C)O)NC(=O)[C@H](CC(=O)O)NC(=O)[C@H](CO)NC(=O)[C@H](CCCNC(=N)N)N(C)C(=O)c2ccccc2CSC(C)(C)[C@@H](C(=O)N[C@@H](Cc2c[nH]c3ccccc23)C(=O)N[C@H](CCC(=O)O)C(=O)N[C@@H](CCN)C(N)=O)NC1=O` [compound 95] (HELM PEPTIDE1{[meR].S.D.T.L.[Pen].W.[dE].[Dab].[am]}|CHEM1{[O=C(c1ccccc1C[*:2])[*:1]]}$PEPTIDE1,CHEM1,1:R1-1:R1|PEPTIDE1,CHEM1,6:R3-1:R2$$$V2.0): less than 25 nM.
On to `CC(C)C[C@@H]1NC(=O)[C@H]([C@@H](C)O)NC(=O)[C@H](CC(=O)O)NC(=O)[C@H](CO)NC(=O)[C@H](CCCNC(=N)N)N(C)C(=O)c2ccccc2CSC(C)(C)[C@@H](C(=O)N[C@@H](Cc2c[nH]c3ccccc23)C(=O)N[C@@H](CCC(=O)O)C(N)=O)NC1=O` [compound 96] (HELM PEPTIDE1{[meR].S.D.T.L.[Pen].W.E.[am]}|CHEM1{[O=C(c1ccccc1C[*:2])[*:1]]}$PEPTIDE1,CHEM1,1:R1-1:R1|PEPTIDE1,CHEM1,6:R3-1:R2$$$V2.0), for which, under setting [1], the IC50 was less than 25 nM.

The record behind these values is US20260217767A1, “NOVEL A4B7 THIOETHER PEPTIDE DIMER ANTAGONISTS” (Protagonist Therapeutics, Inc., priority 2014, published 2026).
